Test results: patent publication US20070269379A1, “Penetration Enhancer Combinations for Transdermal Delivery” (priority 2003, published 2007)

Tests used:
[1] = tested on: EpiDerm, a cell culture of normal human derived epidermal keratinocytes; test: MTT uptake assay of irritation potential on EpiDerm cultures; format: cell-based; conditions: 4 hrs exposure, vehicle 1:1 PBS:EtOH
Procedure: Experiments to assess irritation potential were performed on the binary pairs of library CPEs at the compositions that yielded the maximum ER value in the screening experiments using the methyl thiazol tetrazolium (MTT) uptake assay. Irritation potential was estimated using EpiDermTM (MatTek Co., MA, USA, […].com), a cell culture of normal human derived epidermal keratinocytes. EpiDermTM cultures were stored and handled according to the standard protocol MTT-ET-50 (MatTek Co., MA, USA, […].com). To study the effect of the test formulations on cell viability, cell cultures were exposed to 10 μl of each test formulation for 4 hrs. Each test formulation was analyzed in duplicate. At the end of 4 hrs the assay medium was removed and stored aside at -70° C. for Interleukin-1α assay. The cell cultures were rinsed clear of the test formulations using PBS and incubated with 300 μL of MTT reagent (MatTek Co., MA, USA) for 3 hrs at 37° C. and 5% CO2. At the end of the incubation period the cell cultures were treated with 2 ml of extracting media (provided by MatTek Co) for 2 hrs. 200 μL of this extraction media was then sampled and its optical density (or absorbence) was measured at 570 nm wavelength. The optical absorbance data was then used to calculate the percentage cell viability as recommended in the MTT-ET-50 protocol.

hairless rat skin = test: Skin observation and histology after patch application in hairless rats; format: in vivo; conditions: skin excised after removing the patch, hematoxylin staining

SMILES | irritation potential (IP) [1] [%] | histology: state of the stratum corneum (hairless rat skin)
CCCCCCCC/C=C\CCCCCCCC(=O)O [oleic acid] | 14.5 | 
CCCCCCCCCCCCOS(=O)(=O)[O-].[Na+] [SLS, Sodium Lauryl Sulfate] |  | completely detached
